Test results from patent US20040087642A1, “Methods of using and compositions comprising a JNK inhibitor for the treatment, prevention, management and/or modification of pain” (priority 2002, published 2004).

Experiments:
[1] = system: rat ventral mesencephalan dopaminergic neurons; assay: [3H]Dopamine Cell Culture Assay (6-OHDA neurotoxicity); type: cell-based; conditions: 6-OHDA 30 μM, uptake 22 hrs after exposure
Method: Cultures of dopaminergic neurons were prepared according to a modification of the procedure described by Raymon and Leslie (J. Neurochem. 62:1015-1024, 1994). Time-mated pregnant rats were sacrificed on embyronic day 14-15 (crown rump length 11-12 mm) and the embryos removed by cesarean section. The ventral mesencephalon, containing the dopaminergic neurons, was dissected from each embryo. Tissue pieces from approximately 48 embryos were pooled and dissociated both enzymatically and mechanically. An aliquot from the resulting cell suspension was counted and the cells were plated in high glucose DMEM/F12 culture medium with 10% fetal bovine serum at a density of 1×10^5 cells/well of a Biocoat poly-D-lysine-coated 96-well plate. The day following plating was considered 1 day in vitro (DUV). Cells were maintained in a stable environment at 37° C., 95% humidity, and 5% CO2. A partial medium change was performed at 3 DIV. […]
[^3H]Dopamine uptake is used as a measure of the health and integrity of dopaminergic neurons in culture (Prochiantz et al., PNAS 76: 5387-5391, 1979). […] Briefly, cells treated with 6-OHDA in the presence and absence of 5-amino-anthra(9,1-cd)isothiazol-6-one were assessed in the uptake assay 22 hrs after exposure to 6-OHDA. […] Radioactivity was removed and the cultures were washed 3× with ice cold PBS. […]

[2] = Brain-Blood Plasma Distribution In Vivo; parameters: species or system Sprague-Dawley rats; conditions: rat
Method: 5-Amino-anthra(9,1-cd)isothiazol-6-one was administered intravenously (10 mg/kg) into the veins of Sprague-Dawley rats. After 2 hr, blood samples were obtained from the animals and their vascular systems were perfused with approximately 100 mL of saline to rid their brains of blood. The brains were removed from the animals, weighed, and homogenized in a 50 mL conical tube containing 10 equivalents (w/v) of methanol/saline (1:1) using a Tissue Tearer (Fischer Scientific). The homogenized material was extracted by adding 600 μL of cold methanol to 250 μL of brain homogenate vortexed for 30 sec and subjected to centrifugation for 5 min. After centrifugation, 600 μL of the resulting supernatant was transferred to a clean tube and evaporated at room temperature under reduced pressure to provide a pellet. […] The brain homogenate analysis samples, plasma analysis samples, and standard analysis samples were analyzed and compared using HPLC by injecting 100 μL of a sample onto a 5 μm C-18 Luna column (4.6 mm×150 mm, commercially available from Phenomenex of Torrance, Calif.) and eluting at 1 mL/min with a linear gradient of 30% aqueous acetonitrile containing 0.1% trifluoroacetic acid to 90% aqueous acetonitrile containing 0.1% trifluoroacetic acid over 8 minutes and holding at 90% aqueous acetonitrile containing 0.1% trifluoroacetic acid for 3 min. with absorbance detection at 450 nm. […]

[3] = Solubility in aqueous media; type: physicochemical

## Nc1ccc2snc3c2c1C(=O)c1ccccc1-3 [5-amino-anthra(9,1-cd)isothiazol-6-one]
[1]
  protection of dopaminergic neurons ([3H]dopamine uptake): protects rat ventral mesencephalan neurons from the toxic effects of 6-OHDA
[2]; 10 mg/kg intravenously, 2 hr post-dose
  brain-drug concentration: approximately 65 nmole/g
[2]; following intravenous administration
  blood-brain barrier crossing: crosses the blood-brain barrier to a significant extent
[3]
  solubility in aqueous media: limited solubility
